Reference: article PMC11705451 (FEBS Open Bio, 2024)
Where two headings read alike, the source gives them in different places.

Experiments:
[1] = biological target: T1, hS1P4 (ProLink-tagged, PathHunter) (Homo sapiens, UniProt O95977); assay: PathHunter beta-arrestin recruitment; format: cell-based
T1 construct: gene S1PR4; ProLink-tagged receptor, PathHunter HEK293 cells
T1 sequence (O95977 1-384): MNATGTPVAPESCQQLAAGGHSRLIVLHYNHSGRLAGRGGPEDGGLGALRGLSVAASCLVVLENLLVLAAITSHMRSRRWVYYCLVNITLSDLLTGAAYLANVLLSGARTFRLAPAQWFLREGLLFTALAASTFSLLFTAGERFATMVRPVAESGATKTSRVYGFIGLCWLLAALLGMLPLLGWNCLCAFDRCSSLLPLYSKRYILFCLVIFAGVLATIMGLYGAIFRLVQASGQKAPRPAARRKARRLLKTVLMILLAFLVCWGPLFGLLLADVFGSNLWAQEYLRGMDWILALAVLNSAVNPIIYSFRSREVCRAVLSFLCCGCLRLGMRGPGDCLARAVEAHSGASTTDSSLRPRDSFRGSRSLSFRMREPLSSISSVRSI

hS1P5 [2] = biological target: T2, hS1P5 (Homo sapiens, UniProt Q9H228); assay: […]GTPgammaS binding, CHO-K1 membranes; format: biochemical
T2 construct: gene S1PR5; receptor stably expressed in CHO-K1 cells

hS1P4 [3] = biological target: T3, hS1P4 (Homo sapiens, UniProt O95977); assay: […]GTPgammaS binding, CHO-K1 membranes; format: biochemical
T3 construct: gene S1PR4; receptor stably expressed in CHO-K1 cells
T3 sequence (O95977 1-384): T1 sequence (O95977 1-384)

[4] = biological target: T4, hS1P5 (ProLink-tagged, PathHunter) (Homo sapiens, UniProt Q9H228); assay: PathHunter beta-arrestin recruitment; format: cell-based
T4 construct: gene S1PR5; ProLink-tagged receptor, PathHunter HEK293 cells

hS1P3 [5] = biological target: T5, hS1P3 (Homo sapiens, UniProt Q99500); assay: […]GTPgammaS binding, CHO-K1 membranes; format: biochemical
T5 construct: gene S1PR3; receptor stably expressed in CHO-K1 cells

[6] = biological target: T6, hS1P2 (ProLink-tagged, PathHunter) (Homo sapiens, UniProt O95136); assay: PathHunter beta-arrestin recruitment; format: cell-based
T6 construct: gene S1PR2; PathHunter HEK293 cells, ProLink-tagged; N-terminal HA tag in the internalization assay

[7] = biological target: T4, hS1P5 (ProLink-tagged, PathHunter); assay: cell-based; set-up: species or system PathHunter HEK293; PathHunter beta-arrestin recruitment, agonist concentration-response; details: HEK293, read-out: S1P5 β-Arrestin Emax, % of S1P
Source text: (§1) We extended our pharmacological analysis of etrasimod and the other test compounds on S1P2–5. […] All tested compounds were agonists of S1P5, inducing both G protein signaling and β‐arrestin recruitment (Table S2).

[8] = biological target: T1, hS1P4 (ProLink-tagged, PathHunter); assay: cell-based; set-up: species or system PathHunter HEK293; PathHunter beta-arrestin recruitment, agonist concentration-response; details: HEK293, read-out: S1P4 β-Arrestin Emax, % of S1P
Source text: as §1

hS1P2 [9] = biological target: T7, hS1P2 (Homo sapiens, UniProt O95136); assay: […]GTPgammaS binding, CHO-K1 membranes; format: biochemical
T7 construct: gene S1PR2; receptor stably expressed in CHO-K1 cells

hS1P3 [10] = biological target: T5, hS1P3; assay: biochemical; format: CHO-K1 membranes; set-up: [35S]GTPgammaS binding to membranes, agonist concentration-response; details: read-out: S1P3 GTPγS Emax, % of S1P
Source text: (§2) All tested compounds were agonists of S1P5, inducing both G protein signaling and β‐arrestin recruitment (Table S2).

hS1P5 [11] = biological target: T2, hS1P5; assay: biochemical; format: CHO-K1 membranes; set-up: [35S]GTPgammaS binding to membranes, agonist concentration-response; details: read-out: S1P5 GTPγS Emax, % of S1P
Source text: as §2

[12] = biological target: T8, hS1P3 (ProLink-tagged, PathHunter) (Homo sapiens, UniProt Q99500); assay: cell-based; set-up: species or system PathHunter HEK293; PathHunter beta-arrestin recruitment, agonist concentration-response; details: HEK293, read-out: S1P3 β-Arrestin Emax, % of S1P
T8 construct: gene S1PR3; ProLink-tagged receptor, PathHunter HEK293 cells
Source text: as §1

hS1P2 [13] = biological target: T7, hS1P2; assay: biochemical; format: CHO-K1 membranes; set-up: [35S]GTPgammaS binding to membranes, agonist concentration-response; details: read-out: S1P2 GTPγS Emax, % of S1P
Source text: as §2

hS1P4 [14] = biological target: T3, hS1P4; assay: biochemical; format: CHO-K1 membranes; set-up: [35S]GTPgammaS binding to membranes, agonist concentration-response; details: read-out: S1P4 GTPγS Emax, % of S1P
Source text: as §2

[15] = biological target: T6, hS1P2 (ProLink-tagged, PathHunter); assay: receptor internalization, fluorescence microscopy; format: cell-based; details: N-terminal HA tag, 37 °C

T5 sequence (Q99500 whole entry): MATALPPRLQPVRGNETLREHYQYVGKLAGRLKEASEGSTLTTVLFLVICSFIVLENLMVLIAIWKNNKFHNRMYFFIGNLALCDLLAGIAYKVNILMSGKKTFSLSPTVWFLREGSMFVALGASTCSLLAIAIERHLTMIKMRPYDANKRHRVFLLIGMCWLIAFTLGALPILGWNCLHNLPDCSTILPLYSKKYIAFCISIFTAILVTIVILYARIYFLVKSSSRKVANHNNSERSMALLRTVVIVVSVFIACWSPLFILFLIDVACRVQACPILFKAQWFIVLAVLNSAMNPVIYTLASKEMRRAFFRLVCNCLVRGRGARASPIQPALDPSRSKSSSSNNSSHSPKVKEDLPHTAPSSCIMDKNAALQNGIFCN
T7 sequence (O95136 whole entry): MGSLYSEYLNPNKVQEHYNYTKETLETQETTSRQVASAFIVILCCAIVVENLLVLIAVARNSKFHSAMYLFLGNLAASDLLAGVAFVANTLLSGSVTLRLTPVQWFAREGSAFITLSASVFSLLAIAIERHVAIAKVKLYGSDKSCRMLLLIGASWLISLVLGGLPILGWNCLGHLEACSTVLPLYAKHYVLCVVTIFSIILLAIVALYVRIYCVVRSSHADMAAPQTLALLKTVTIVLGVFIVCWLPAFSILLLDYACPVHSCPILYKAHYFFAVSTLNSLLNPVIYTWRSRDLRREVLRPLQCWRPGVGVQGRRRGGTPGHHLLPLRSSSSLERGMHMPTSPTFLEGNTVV
T6 sequence (O95136 whole entry): as above
T4 sequence (Q9H228 whole entry): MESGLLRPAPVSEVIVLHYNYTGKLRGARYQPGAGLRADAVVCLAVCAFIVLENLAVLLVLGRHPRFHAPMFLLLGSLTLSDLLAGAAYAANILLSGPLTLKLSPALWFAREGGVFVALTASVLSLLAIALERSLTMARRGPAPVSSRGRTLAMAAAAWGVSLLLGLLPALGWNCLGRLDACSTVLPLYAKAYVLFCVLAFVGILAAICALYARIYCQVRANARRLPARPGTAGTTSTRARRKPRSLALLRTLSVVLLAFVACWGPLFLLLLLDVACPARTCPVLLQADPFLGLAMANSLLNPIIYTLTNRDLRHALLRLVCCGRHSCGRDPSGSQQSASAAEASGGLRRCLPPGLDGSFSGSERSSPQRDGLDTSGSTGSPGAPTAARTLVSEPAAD
T2 sequence (Q9H228 whole entry): as above
T8 sequence (Q99500 whole entry): as the sequence (Q99500 whole entry) above

| SMILES | EC50 [1] | EC50 (hS1P5 [2]) | EC50 (hS1P4 [3]) | EC50 [4] | EC50 (hS1P3 [5]) | EC50 ([6]; read-out: EC50) | Emax [7] | Emax [8] | EC50 (hS1P2 [9]; read-out: EC50) | Emax (hS1P3 [10]) | Emax (hS1P5 [11]) | Emax [12] | Emax (hS1P2 [13]) | Emax (hS1P4 [14]) | EC50 ([6]; agonist, 0.1% fatty acid-free BSA, room temperature, 2 h) | EC50 (hS1P2 [9]; agonist, 0.1% fatty acid-free BSA, room temperature, 10 mM MgCl2) | receptor internalization, fluorescence microscopy [15] |
| --- | --- | --- | --- | --- | --- | --- | --- | --- | --- | --- | --- | --- | --- | --- | --- | --- | --- |
| CC(C)Oc1ccc(-c2nc(-c3cccc4c3CCC4=O)no2)cc1C#N [Ozanimod(K)] | > 500 nM | 58.5 nM | > 10000 nM | 95.8 nM | > 10000 nM | – | 115% | 89.1% | – | – | 105% | – | – | – | – | – | – |
| CC(C)Oc1ccc(-c2nc(-c3cccc4c3CC[C@@H]4NCCO)no2)cc1C#N [Ozanimod] | > 500 nM | 28.8 nM | > 10000 nM | 12.3 nM | > 6000 nM | – | – | – | – | – | – | – | – | – | – | – | Fingolimod(P) and ozanimod induced robust S1P2 internalization in a dose‐dependent and saturable fashion |
| CCc1cc(/C(C)=N/OCc2ccc(C3CCCCC3)c(C(F)(F)F)c2)ccc1CN1CC(C(=O)O)C1 [Siponimod] | > 500 nM | – | 510 nM | – | > 10000 nM | – | 107% | 92.6% | – | – | 118% | – | – | 134% | – | – | – |

The next molecules have a lower EC50 [1] than those just listed; values first:

| EC50 [1] | EC50 (hS1P5 [2]) | EC50 (hS1P4 [3]) | EC50 [4] | EC50 (hS1P3 [5]) | EC50 ([6]; read-out: EC50) | Emax [7] | Emax [8] | EC50 (hS1P2 [9]; read-out: EC50) | Emax (hS1P3 [10]) | Emax (hS1P5 [11]) | Emax [12] | Emax (hS1P2 [13]) | Emax (hS1P4 [14]) | SMILES | EC50 ([6]; agonist, 0.1% fatty acid-free BSA, room temperature, 2 h) | EC50 (hS1P2 [9]; agonist, 0.1% fatty acid-free BSA, room temperature, 10 mM MgCl2) | receptor internalization, fluorescence microscopy [15] |
| --- | --- | --- | --- | --- | --- | --- | --- | --- | --- | --- | --- | --- | --- | --- | --- | --- | --- |
| 141 nM | 63.4 nM | > 10000 nM | 63.5 nM | 6050 nM | > 10000 nM | 85.7% | 53.9% | > 10000 nM | 41.5% | 72% | – | – | – | O=C(O)C[C@H]1CCc2c1[nH]c1ccc(OCc3ccc(C4CCCC4)c(C(F)(F)F)c3)cc21 [Etrasimod] | – | – | – |
| 6.9 nM | – | 6.1 nM | – | – | – | 48.4% | 77.6% | – | 39.1% | 69.5% | 9.1% | 35.2% | 121% | CCCCCCCCc1ccc(CCC(N)(CO)COP(=O)(O)O)cc1 (stereo not shown) [Fingolimod(P)] | fingolimod(P) was a weak agonist, in terms of both potency and efficacy | fingolimod(P) was a weak agonist, in terms of both potency and efficacy | – |
